Where only a bound is given, the exact number is not on record here.

The test system of one assay is YAP/TAZ-TEAD transcription. Kind of assay: Reporter gene assay for measuring the inhibition of YAP/TAZ-TEAD transcription (TEAD-responsive element luciferase reporter in Hek293T cells). It counts as cell-based. As to conditions: 24 hours incubation. How it is done: Example 56: Activity of Compounds of the Disclosure in a Reporter Gene Assay for Measuring the Inhibition of YAP/TAZ-TEAD Transcription
Hek293T cells were cultured in DMEM supplemented with 10% fetal bovine serum, Sodium pyruvate, Sodium bicarbonate, L-glutamine. The cells were harvested and transiently transfected with TEAD-responsive element luciferase reporter. Transfected cells were plated in 384-well plate containing pre-diluted compounds. After 24 hours incubation at 37° C./5% CO2, assay plates were cooled to room temperature and levelled to an equal volume per well, prior to the addition of 25 uL luciferase substrate SteadyLite (Perkin Elmer)/well. The plate was shaken for 10 min at 600 rpm, centrifuged for 1 min at 500 rpm and measured with an Envision reader (PerkinElmer). The amount of relative light units produced by the TEAD reporter was used to calculate the percentage of inhibition.
The percent of reporter inhibition was calculated in the presence of a positive control inhibitor (100% inhibition) versus a condition with the presence of the vehicle basal activity of the reporter (0% inhibition). The ability of a test compound to inhibit this activity was determined as: Percentage inhibition=[[…]((RLU determined in the presence of vehicle−RLU determined for sample with test compound present) divided by (RLU determined in the presence of vehicle−RLU determined for sample with positive control inhibitor))]*100.
The activities of example compounds tested are depicted in Table 3. The activity ranges A, B and C refer to IC50 values in the reporter gene assay as follows: “A”: IC50<1 μM; “B”: 1 μM≤IC50≤10 μM and “C”: IC50>10 μM; NT=not tested.
For orientation: A reporter such as luciferase makes a cellular process visible.
One may read the IC50 as the concentration that gives 50% inhibition. Regarding `CC(=O)NCC1CN(c2ccc(C(F)(F)F)cc2)c2ccc(N(C)C)nc2O1` (single isomer, unassigned) [87-En2, (R)- or (S)-N-((6-(dimethylamino)-1-(4-(trifluoromethyl)phenyl)-2,3-dihydro-1H-pyrido[2,3-b][1,4]oxazin-3-yl)methyl)acetamide], the IC50 is below 1 µM. For the molecule `O=C(O)C1(F)CCN2c3ccccc3N(c3ccc(C(F)(F)F)cc3)CC2C1` [123-D3, (6aS,8S)- or (6aR,8S)- or (6aR,8R)- or (6aS,8R)-8-fluoro-5-(4-(trifluoromethyl)phenyl)-6,6a,7,8,9,10-hexahydro-5H-pyrido[1,2-a]quinoxaline-8-carboxylic acid], the IC50 is below 1 µM.

For the molecule `CC(=O)NCC1CN(c2ccc(C(F)(F)F)cc2)c2ccc(C)nc2O1` (single isomer, unassigned) [77-En2, (R)- or (S)-N-((6-methyl-1-(4-(trifluoromethyl)phenyl)-2,3-dihydro-1H-pyrido[2,3-b][1,4]oxazin-3-yl)methyl)acetamide], the IC50 was below 1 µM. On the same count and under the same terms, for `CC(=O)N1CCN2c3nccnc3N(c3ccc(C(F)(F)F)cc3)CC2C1` (single isomer, unassigned) [40-En2, (R)- or (S)-1-(5-(4-(trifluoromethyl)phenyl)-5,6,6a,7,9,10-hexahydro-8H-dipyrazino[1,2-a:2′,3′-e]pyrazin-8-yl)ethan-1-one] the value was 1 to 10 µM.

Regarding `CC(=O)N1CC2CN(c3ccc(C(F)(F)F)cc3)c3ccccc3N2CC1C(=O)O` (stereo not drawn) [compound 91, (cis)- or (trans)-3-acetyl-6-(4-(trifluoromethyl)phenyl)-2,3,4,4a,5,6-hexahydro-1H-pyrazino[1,2-a]quinoxaline-2-carboxylic acid], the IC50 is below 1 µM. Turning to `C=CC(=O)N1CCN2c3ncccc3N(c3ccc(C(F)(F)F)cc3)CC2C1` (centres unmarked) [28-En2, 1-(5-(4-(trifluoromethyl)phenyl)-5,6,6a,7,9,10-hexahydro-8H-pyrazino[1,2-a]pyrido[3,2-e]pyrazin-8-yl)prop-2-en-1-one], the IC50 was below 1 µM. The molecule `CNC(=O)N1CCN2c3ncccc3N(c3ccc(C(F)(F)F)cc3)CC2C1` (single isomer, unassigned) [52-En1, (R)- or (S)-N-methyl-5-(4-(trifluoromethyl)phenyl)-5,6,6a,7,9,10-hexahydro-8H-pyrazino[1,2-a]pyrido[3,2-e]pyrazine-8-carboxamide] returned an IC50 below 1 µM. Same read-out and setting: next, `CC(=O)N1CCN2c3ccccc3N(c3ccc(C(F)(F)F)cc3)CC2C1` (single isomer, unassigned) [15-En1, (R)- or (S)-1-(6-(4-(trifluoromethyl)phenyl)-1,2,4,4a,5,6-hexahydro-3H-pyrazino[1,2-a]quinoxalin-3-yl)ethan-1-one]: 1 to 10 µM; `CC(=O)NCC1CN(c2ccc(C(F)(F)F)cc2)c2cc(Cl)cnc2O1` (centres unmarked) [compound 75, N-((7-chloro-1-(4-(trifluoromethyl)phenyl)-2,3-dihydro-1H-pyrido[2,3-b][1,4]oxazin-3-yl)methyl)acetamide]: below 1 µM.

The same assay, now with this note: Homo sapiens, HEK-293T, 24 h, 24 hours incubation.
The molecule `O=C(O)CC(=O)N[C@@H]1C[C@@H]2CN(c3ccc(C(F)(F)F)cc3)c3cccnc3N2C1` [compound 94, 3-oxo-3-(((6aR,8R)-5-(4-(trifluoromethyl)phenyl)-5,6,6a,7,8,9-hexahydropyrido[3,2-e]pyrrolo[1,2-a]pyrazin-8-yl)amino)propanoic acid] came in with an IC50 of 1 to 10 µM.

Take `Cn1cncc1CN1CCN(c2ccc(C(F)(F)F)cc2)c2ccccc21` [compound 60, 1-((1-methyl-1H-imidazol-5-yl)methyl)-4-(4-(trifluoromethyl)phenyl)-1,2,3,4-tetrahydroquinoxaline]: the concentration for half-maximal inhibition (IC50) was below 1 µM. The molecule `C=CC(=O)N1CCN2C(C1)CN(c1ccc(C(F)(F)F)cc1)C1CCC12` (single isomer, unassigned) [42(Dia1), 1-(3-(4-(trifluoromethyl)phenyl)decahydro-6H-cyclobuta[e]pyrazino[1,2-a]pyrazin-6-yl)prop-2-en-1-one] returned a concentration for half-maximal inhibition (IC50) below 1 µM.

As for `O=C1CN(c2ccc(C(F)(F)F)cc2)c2ccccc2N1Cc1cn[nH]c1` [compound 80, 1-((1H-pyrazol-4-yl)methyl)-4-(4-(trifluoromethyl)phenyl)-3,4-dihydroquinoxalin-2(1H)-one], the IC50 is below 1 µM. The molecule `O=C(CO)N[C@@H]1C[C@@H]2CN(c3ccc(C(F)(F)F)cc3)c3cccnc3N2C1` [compound 95, 2-hydroxy-N-((6aR,8R)-5-(4-(trifluoromethyl)phenyl)-5,6,6a,7,8,9-hexahydropyrido[3,2-e]pyrrolo[1,2-a]pyrazin-8-yl)acetamide] yielded an IC50 below 1 µM. `O=C(C1CC1)N1CCN2c3ncccc3N(c3ccc(C(F)(F)F)cc3)CC2C1` (centres unmarked) [compound 46, Cyclopropyl(5-(4-(trifluoromethyl)phenyl)-5,6,6a,7,9,10-hexahydro-8H-pyrazino[1,2-a]pyrido[3,2-e]pyrazin-8-yl)methanone] displayed an IC50 below 1 µM. Molecule `O=C1CN2c3ccccc3N(c3ccc(C(F)(F)F)cc3)CC2CN1` (centres unmarked) [compound 10, 6-(4-(trifluoromethyl)phenyl)-4,4a,5,6-tetrahydro-1H-pyrazino[1,2-a]quinoxalin-2(3H)-one] yielded an IC50 of 1 to 10 µM.

Regarding `CC(=O)N1CCN2c3ncccc3N(c3ccc(C(F)(F)F)nc3)CC2C1` (centres unmarked) [compound 54, 1-(5-(6-(trifluoromethyl)pyridin-3-yl)-5,6,6a,7,9,10-hexahydro-8H-pyrazino[1,2-a]pyrido[3,2-e]pyrazin-8-yl)ethan-1-one], the IC50 was in the range of 1 to 10 µM. `Cc1ncc(CN2CCN(c3ccc(C(F)(F)F)cc3)c3ccccc32)[nH]1` [compound 61, 1-((2-methyl-1H-imidazol-5-yl)methyl)-4-(4-(trifluoromethyl)phenyl)-1,2,3,4-tetrahydroquinoxaline] registered an IC50 below 1 µM.

`O=C(O)C1CCN(c2ccccc2Nc2ccc(C(F)(F)F)cc2)CC1` [compound 111, 1-(2-((4-(trifluoromethyl)phenyl)amino)phenyl)piperidine-4-carboxylic acid] had an IC50 below 1 µM. `C=CC(=O)NCC1CN(c2ccc(C(F)(F)F)cc2)c2ccccc2N1C(C)=O` (centres unmarked) [compound 18, N-((1-acetyl-4-(4-(trifluoromethyl)phenyl)-1,2,3,4-tetrahydroquinoxalin-2-yl)methyl)acrylamide]: the half-maximal inhibitory concentration (IC50) was in the range of 1 to 10 µM. `O=C(O)C1CCN2c3cc(Cl)ccc3N(c3ccc(C(F)(F)F)cc3)CC2C1` (stereo not drawn) [compound 106, (cis)- or (trans)-2-chloro-5-(4-(trifluoromethyl)phenyl)-6,6a,7,8,9,10-hexahydro-5H-pyrido[1,2-a]quinoxaline-8-carboxylic acid] returned an IC50 below 1 µM.

`CN1CCN2c3ccccc3N(c3ccc(C(F)(F)F)cc3)CC2C1` (centres unmarked) [compound 26, 3-methyl-6-(4-(trifluoromethyl)phenyl)-2,3,4,4a,5,6-hexahydro-1H-pyrazino[1,2-a]quinoxaline]: the IC50 lay within 1 to 10 µM. `CC(=O)NCC1CN(c2ccc(C(F)(F)F)cc2)c2ccc(C)nc2O1` (centres unmarked) [compound 77, N-((6-methyl-1-(4-(trifluoromethyl)phenyl)-2,3-dihydro-1H-pyrido[2,3-b][1,4]oxazin-3-yl)methyl)acetamide] came in with an IC50 below 1 µM. Turning to `O=C(O)C1CCN2c3ncc(Cl)cc3N(c3ccc(C(F)(F)F)cc3)CC2C1` (stereo not drawn) [100A, (cis)- or (trans)-3-chloro-5-(4-(trifluoromethyl)phenyl)-6,6a,7,8,9,10-hexahydro-5H-dipyrido[1,2-a:3′,2′-e]pyrazine-8-carboxylic acid], the IC50 is below 1 µM. Same read-out and setting: for `FC(F)(F)c1ccc(N2CC3CN(c4ncco4)CCN3c3ccccc32)cc1` (centres unmarked) [compound 25, 2-(6-(4-(trifluoromethyl)phenyl)-1,2,4,4a,5,6-hexahydro-3H-pyrazino[1,2-a]quinoxalin-3-yl)oxazole] the value was above 10 µM; for `CC(=O)N[C@@H]1C[C@@H]2CN(c3ccc(C(F)(F)F)cc3)c3cc(Cl)cnc3N2C1` [compound 98, N-((6aR,8R)-3-chloro-5-(4-(trifluoromethyl)phenyl)-5,6,6a,7,8,9-hexahydropyrido[3,2-e]pyrrolo[1,2-a]pyrazin-8-yl)acetamide], below 1 µM; for `O=Cc1ccc(CN2CCN3c4ccccc4N(c4ccc(C(F)(F)F)cc4)CC3C2)cc1O` (centres unmarked) [compound 30, 2-hydroxy-4-((6-(4-(trifluoromethyl)phenyl)-1,2,4,4a,5,6-hexahydro-3H-pyrazino[1,2-a]quinoxalin-3-yl)methyl)benzaldehyde], 1 to 10 µM. On the same count and under the same terms, next, `FC(F)(F)c1ccc(N2CC3CC(c4nnn[nH]4)CCN3c3ccccc32)cc1` (centres unmarked) [121-D1, 8-(1H-tetrazol-5-yl)-5-(4-(trifluoromethyl)phenyl)-6,6a,7,8,9,10-hexahydro-5H-pyrido[1,2-a]quinoxaline]: 1 to 10 µM.

Consider `CC(=O)NCC1CN(c2ccc(C(F)(F)F)cc2)c2ccccc2N1C` (centres unmarked) [compound 19, N-((1-methyl-4-(4-(trifluoromethyl)phenyl)-1,2,3,4-tetrahydroquinoxalin-2-yl)methyl)acetamide], for which the IC50 was in the range of 1 to 10 µM.
